The structures appear in SMILES notation.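 Exposure lasted 48 hours, with cells grown in 96-well plates and compounds tested at five concentrations. At the GI50, growth is halved.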 Activity calls are given as the source filed them. Cut-off read from the data, not from the text of the source: active = GI50 up to about 1.1 µM and inactive = higher.

Among the test systems are A498; NCI-H460; NCI-H522; LOX IMVI; HL-60; MDA-MB-435; HCT-15; HOP-62; K562; OVCAR-5; MOLT-4; 786-0; M14; OVCAR-8; KM12; NCI-H23; MCF7; SK-OV-3; SNB-75.
Holding throughout (test): inhibition of tumour cell growth, NCI panel, 48 h

`CCCCCC(=O)CCCCCCCC(O)CC(=O)OCC` (stereo unspecified): the GI50 with A498 was > 100 µM (inactive); in the assay on NCI-H460, > 100 µM (inactive); with NCI-H522 it was > 100 µM (inactive); in the assay with LOX IMVI, > 100 µM (inactive); in the assay on HL-60 it was 48.9 µM (inactive); in the assay on MDA-MB-435 it was > 100 µM (inactive). Besides, the GI50 in the assay on HCT-15 was greater than 100 µM; with HOP-62, > 100 µM (inactive); in the assay with K562 it was > 100 µM (inactive); with OVCAR-5, > 100 µM (inactive); in the assay with MOLT-4 it was > 100 µM (inactive); in the assay on 786-0, > 100 µM (inactive). In addition, the GI50 with M14, in the assay on OVCAR-8, in the assay with KM12, in the assay with NCI-H23 and in the assay on MCF7 was > 100 µM (inactive) throughout.

Consider `O=C1C=C(N2CCN(c3ncccn3)CC2)C(=O)c2c(O)ccc(O)c21`, for which the GI50 in the assay with A498 is > 100 µM (inactive); with NCI-H460, > 100 µM (inactive); in the assay with NCI-H522, > 100 µM (inactive); with LOX IMVI it was > 100 µM (inactive); in the assay on HL-60 it was > 100 µM (inactive); in the assay with MDA-MB-435, 7.21 µM (inactive). Besides, the GI50 with HCT-15 was greater than 100 µM; with HOP-62 it was 49.2 µM (inactive); with SK-OV-3, > 100 µM (inactive); in the assay with K562, > 100 µM (inactive); in the assay with OVCAR-5 it was > 100 µM (inactive); with MOLT-4 it was > 100 µM (inactive). Moreover, the GI50 in the assay with 786-0 is 53 µM (inactive); with M14, > 100 µM (inactive); in the assay on OVCAR-8, > 100 µM (inactive); with KM12, > 100 µM (inactive); in the assay on NCI-H23, > 100 µM (inactive); in the assay with MCF7, > 100 µM (inactive).

In the case of `Brc1ccc(-c2nc(-c3ccc(Br)cc3)n(-c3ccccc3)n2)cc1`, the GI50 in the assay on A498 is > 100 µM (inactive); in the assay with NCI-H460, > 100 µM (inactive); in the assay on NCI-H522 it was 39 µM (inactive); with LOX IMVI, > 100 µM (inactive); in the assay with HL-60, 34.8 µM (inactive); in the assay on MDA-MB-435, 46.7 µM (inactive). For the same compound, the GI50 in the assay with HCT-15 is greater than 100 µM; with HOP-62, > 100 µM (inactive); in the assay with SK-OV-3, > 100 µM (inactive); in the assay on OVCAR-5 it was > 100 µM (inactive); with MOLT-4, 53.7 µM (inactive); in the assay on 786-0 it was > 100 µM (inactive). Moreover, the GI50 in the assay on M14 is > 100 µM (inactive); with OVCAR-8, > 100 µM (inactive); in the assay with KM12 it was 49.5 µM (inactive); with NCI-H23, > 100 µM (inactive); in the assay on MCF7, > 100 µM (inactive); in the assay on SNB-75, 54.3 µM (inactive).

`COc1c(OC)c(OC)c(C(=O)/C=C/c2ccccc2)c(OC)c1OC`: the GI50 in the assay with A498 is 4.28 µM (inactive); in the assay on NCI-H460, 6.46 µM (inactive); with NCI-H522, 3.12 µM (inactive); with LOX IMVI, 10 µM (inactive); with HL-60, 7.11 µM (inactive); in the assay with MDA-MB-435, 5.06 µM (inactive). Besides, the GI50 with HCT-15 was 10.6 µM; in the assay with SK-OV-3, 12.3 µM (inactive); in the assay on K562 it was 4.17 µM (inactive); in the assay with OVCAR-5 it was 16.5 µM (inactive); in the assay with MOLT-4, 8.83 µM (inactive); in the assay with 786-0, 9.29 µM (inactive). The GI50 in the assay on M14 was 12 µM (inactive); with OVCAR-8, 10.3 µM (inactive); in the assay with KM12, 4.1 µM (inactive); with NCI-H23 it was 11 µM (inactive); in the assay with MCF7, 5.82 µM (inactive); with SNB-75 it was 8.91 µM (inactive).

The values above are taken from ChEMBL document CHEMBL1201862, “PubChem BioAssay data set” (2004).
